Source: patent US4681872A (priority 1985, dated 1987)
Values after ≈ are worked out from the molar mass of the structure shown. Where two headings read alike, the source gives them in different places.

Tests used:
Peptostrep. SP TB-11 = test: antimicrobial spectrum, agar dilution MIC
Strep. pyogenes C203 = test: antimicrobial spectrum, agar dilution MIC; assay type: cell-based; conditions: BHI agar, 35°-37° C., 20-24 hours
E. coli KNK 437 = test: antimicrobial spectrum, agar dilution MIC
Staph. aureus CYR 1162 = test: antimicrobial spectrum, agar dilution MIC; assay type: cell-based; conditions: 35°-37° C., 20-24 hours
Bact. vulgatus 792 = test: antimicrobial spectrum, agar dilution MIC; assay type: cell-based; conditions: BHI agar, 35°-37° C., 20-24 hours
Enterococcus CMX 729G = test: antimicrobial spectrum, agar dilution MIC
[1] = tested on: Strep. pyogenes M79061-139; test: antimicrobial spectrum, agar dilution MIC; assay type: cell-based; conditions: 35°-37° C., 20-24 hours
Staph. aureus NCTC 10649 = test: antimicrobial spectrum, agar dilution MIC; assay type: cell-based; conditions: 35°-37° C., 20-24 hours
Enterococcus GYR 1164 = test: antimicrobial spectrum, agar dilution MIC
Staph. aureus = test: acute mouse protection test; assay type: in vivo, Swiss albino mice; conditions: for ED50: Staphylococcus aureus, 168 h
[2] = tested on: Peptostrep. anaerobius ATCC 27337; test: antimicrobial spectrum, agar dilution MIC
[3] = tested on: Bact. thetaiotamicron 3304; test: antimicrobial spectrum, agar dilution MIC; assay type: cell-based; conditions: BHI agar, 35°-37° C., 20-24 hours
Enterococcus CMX 736F = test: antimicrobial spectrum, agar dilution MIC
Staph. aureus CYR 1150 = test: antimicrobial spectrum, agar dilution MIC; assay type: cell-based; conditions: 35°-37° C., 20-24 hours
[4] = tested on: Cl. perfringens SFBC 2026; test: microbe, parasite or virus in culture; assay type: cell-based
[5] = tested on: Strep. agalactiae CMX 508; test: antimicrobial spectrum, agar dilution MIC
Enterococcus A-5168 = test: antimicrobial spectrum, agar dilution MIC
Staph. aureus CMX 705 = test: antimicrobial spectrum, agar dilution MIC; assay type: cell-based; conditions: 35°-37° C., 20-24 hours
Fusobacterium SP GS-10 = test: antimicrobial spectrum, agar dilution MIC
[6] = tested on: Staph. epidermidis 3519 RARI; test: microbe, parasite or virus in culture; assay type: cell-based
[7] = tested on: Strep. agalactiae CMX 633; test: antimicrobial spectrum, agar dilution MIC; assay type: cell-based; conditions: 35°-37° C., 20-24 hours
[8] = tested on: Ent. aerogenes ATCC 10348; test: antimicrobial spectrum, agar dilution MIC
[9] = tested on: Staph. epidermidis CMX 724G; test: antimicrobial spectrum, agar dilution MIC
[10] = tested on: Bact. thetaiotamicron ATCC 29741; test: antimicrobial spectrum, agar dilution MIC
[11] = tested on: Strep. pneumoniae CMX 635; test: antimicrobial spectrum, agar dilution MIC; assay type: cell-based; conditions: 35°-37° C., 20-24 hours
[12] = tested on: Veillonella parvula ATCC 10790; test: antimicrobial spectrum, agar dilution MIC
E. coli H560 = test: antimicrobial spectrum, agar dilution MIC
Staph. epidermidis 3519 = test: antimicrobial spectrum, agar dilution MIC
Staph. aureus ATCC 25923 = test: antimicrobial spectrum, agar dilution MIC; assay type: cell-based; conditions: 35°-37° C., 20-24 hours
Acinetobacter SP CMX 669 = test: antimicrobial spectrum, agar dilution MIC
Cl. perfringens 788 = test: microbe, parasite or virus in culture; assay type: cell-based
Staph. aureus CMX 739A = test: antimicrobial spectrum, agar dilution MIC; assay type: cell-based; conditions: BHI agar, 35°-37° C., 20-24 hours
Bact. fragilis 105 = test: antimicrobial spectrum, agar dilution MIC; assay type: cell-based; conditions: BHI agar, 35°-37° C., 20-24 hours
Pep. magnus ATCC 29328 = test: antimicrobial spectrum, agar dilution MIC; assay type: cell-based; conditions: 35°-37° C., 20-24 hours
[13] = tested on: Pseudomonas aeruginosa K799/61; test: antimicrobial spectrum, agar dilution MIC

CCC1OC(=O)C(C)C(OC2CC(C)(OC)CC(C)O2)C(C)C(OC2OC(C)CC(N(C)C)C2O)C(C)(O)CC(C)C(=O)C(C)C2OC(=O)OC12C (stereo not drawn) [4"-deoxyerythromycin A 11,12-carbonate]
MIC (Peptostrep. SP TB-11; Peptostrep. SP TB-11, BHI agar, 35°-37° C., 20-24 hours): .8 µg/mL (≈ 1.08 µM) | MIC (Strep. pyogenes C203): .004 µg/mL (≈ 0.00538 µM) | MIC (E. coli KNK 437; E. coli KNK 437, BHI agar, 35°-37° C., 20-24 hours): 25 µg/mL (≈ 33.6 µM) | MIC (Staph. aureus CYR 1162; BHI agar): .06 µg/mL (≈ 0.0807 µM) | MIC (Bact. vulgatus 792): .2 µg/mL (≈ 0.269 µM) | MIC (Enterococcus CMX 729G; Enterococcus CMX 729G, BHI agar, 35°-37° C., 20-24 hours): .12 µg/mL (≈ 0.161 µM) | MIC ([1]; BHI agar): .015 µg/mL (≈ 0.0202 µM) | MIC (Staph. aureus NCTC 10649; BHI agar): .06 µg/mL (≈ 0.0807 µM) | MIC (Enterococcus GYR 1164; Enterococcus GYR 1164, BHI agar, 35°-37° C., 20-24 hours): .12 µg/mL (≈ 0.161 µM) | ED-50 (Staph. aureus; Staph. aureus, mice, oral, dosed 1 and 5 hours post-infection, observed 7 days): 31.4 mg/kg | ED-50 (Staph. aureus; Staph. aureus, mice, subcutaneous, dosed 1 and 5 hours post-infection, observed 7 days): 36.3 mg/kg | MIC ([2]; Peptostrep. anaerobius ATCC 27337, BHI agar, 35°-37° C., 20-24 hours): .05 µg/mL (≈ 0.0672 µM) | MIC [3]: 3.1 µg/mL (≈ 4.17 µM) | MIC (Enterococcus CMX 736F; Enterococcus CMX 736F, BHI agar, 35°-37° C., 20-24 hours): .12 µg/mL (≈ 0.161 µM) | MIC (Staph. aureus CYR 1150; BHI agar): .03 µg/mL (≈ 0.0403 µM) | MIC ([4]; Cl. perfringens SFBC 2026, BHI agar, 35°-37° C., 20-24 hours): .4 µg/mL (≈ 0.538 µM) | MIC ([5]; Strep. agalactiae CMX 508, BHI agar, 35°-37° C., 20-24 hours): .02 µg/mL (≈ 0.0269 µM) | MIC (Enterococcus A-5168; Enterococcus A-5168, BHI agar, 35°-37° C., 20-24 hours): 128 µg/mL (≈ 172 µM) | MIC (Staph. aureus CMX 705; BHI agar): .03 µg/mL (≈ 0.0403 µM) | MIC (Fusobacterium SP GS-10; Fusobacterium SP GS-10, BHI agar, 35°-37° C., 20-24 hours): 25 µg/mL (≈ 33.6 µM) | MIC ([6]; Staph. epidermidis 3519 RARI, BHI agar, 35°-37° C., 20-24 hours): .1 µg/mL (≈ 0.134 µM) | MIC ([7]; BHI agar): .015 µg/mL (≈ 0.0202 µM) | MIC ([8]; Ent. aerogenes ATCC 10348, BHI agar, 35°-37° C., 20-24 hours): 50 µg/mL (≈ 67.2 µM) | MIC ([9]; Staph. epidermidis CMX 724G, BHI agar, 35°-37° C., 20-24 hours): 128 µg/mL (≈ 172 µM) | MIC ([10]; Bact. thetaiotamicron ATCC 29741, BHI agar, 35°-37° C., 20-24 hours): 1.6 µg/mL (≈ 2.15 µM) | MIC ([11]; BHI agar): .008 µg/mL (≈ 0.0108 µM) | MIC ([12]; Veillonella parvula ATCC 10790, BHI agar, 35°-37° C., 20-24 hours): 3.1 µg/mL (≈ 4.17 µM) | MIC (E. coli H560; E. coli H560, BHI agar, 35°-37° C., 20-24 hours): 6.2 µg/mL (≈ 8.33 µM) | MIC (Staph. epidermidis 3519; Staph. epidermidis 3519, BHI agar, 35°-37° C., 20-24 hours): .1 µg/mL (≈ 0.134 µM) | MIC (Staph. aureus ATCC 25923; BHI agar): .03 µg/mL (≈ 0.0403 µM) | MIC (Acinetobacter SP CMX 669; Acinetobacter SP CMX 669, BHI agar, 35°-37° C., 20-24 hours): 6.2 µg/mL (≈ 8.33 µM) | MIC (Cl. perfringens 788; Cl. perfringens 788, BHI agar, 35°-37° C., 20-24 hours): .4 µg/mL (≈ 0.538 µM) | MIC (Staph. aureus CMX 739A): .03 µg/mL (≈ 0.0403 µM) | MIC (Bact. fragilis 105): .2 µg/mL (≈ 0.269 µM) | MIC (Pep. magnus ATCC 29328; BHI agar): .2 µg/mL (≈ 0.269 µM) | MIC ([13]; Pseudomonas aeruginosa K799/61, BHI agar, 35°-37° C., 20-24 hours): 1.56 µg/mL (≈ 2.1 µM)

CC[C@H]1OC(=O)[C@H](C)[C@@H](O[C@H]2C[C@@](C)(OC)[C@@H](O)[C@H](C)O2)[C@H](C)[C@@H](O[C@@H]2O[C@H](C)C[C@H](N(C)C)[C@H]2O)[C@](C)(O)C[C@@H](C)C(=O)[C@H](C)[C@@H](O)[C@]1(C)O [Erythromycin A, reference compound]
MIC (Peptostrep. SP TB-11): 3.1 µg/mL (≈ 4.22 µM) | MIC (Strep. pyogenes C203; Streptococcus pyogenes, read-out: MIC): 0.004 µg/mL (≈ 0.00545 µM) | MIC (E. coli KNK 437; Escherichia coli, KNK437): 100 µg/mL (≈ 136 µM) | MIC (Staph. aureus CYR 1162; Staphylococcus aureus, CYR1162, BHI agar, read-out: MIC): 0.06 µg/mL (≈ 0.0818 µM) | MIC (Bact. vulgatus 792; Phocaeicola vulgatus, read-out: MIC): 0.4 µg/mL (≈ 0.545 µM) | MIC (Enterococcus CMX 729G; Enterococcus, CMX729G): 0.1 µg/mL (≈ 0.136 µM) | MIC ([1]; Streptococcus pyogenes, M79061139, BHI agar, read-out: MIC): 0.015 µg/mL (≈ 0.0204 µM) | MIC (Staph. aureus NCTC 10649; Staphylococcus aureus, NCTC10649, BHI agar, read-out: MIC): 0.12 µg/mL (≈ 0.164 µM) | MIC (Enterococcus GYR 1164; Enterococcus, GYR1164): 2 µg/mL (≈ 2.73 µM) | ED50 (Staph. aureus; Staph. aureus, mice, oral, dosed 1 and 5 hours post-infection, observed 7 days, read-out: ED-50): 141 mg/kg | ED50 (Staph. aureus; sc): 21.4 mg/kg | MIC [2]: 0.05 µg/mL (≈ 0.0681 µM) | MIC ([3]; read-out: MIC): 6.3 µg/mL (≈ 8.58 µM) | MIC (Enterococcus CMX 736F; Enterococcus, CMX736F): 0.1 µg/mL (≈ 0.136 µM) | MIC (Staph. aureus CYR 1150; Staphylococcus aureus, CYR1150, BHI agar, read-out: MIC): 0.12 µg/mL (≈ 0.164 µM) | MIC ([4]; Clostridium perfringens, SFBC2026): 1.6 µg/mL (≈ 2.18 µM) | MIC ([5]; Streptococcus agalactiae, CMX508): 0.05 µg/mL (≈ 0.0681 µM) | MIC (Enterococcus A-5168; Enterococcus, A5168): 128 µg/mL (≈ 174 µM) | MIC (Staph. aureus CMX 705; Staphylococcus aureus, CMX705, BHI agar, read-out: MIC): 0.06 µg/mL (≈ 0.0818 µM) | MIC (Fusobacterium SP GS-10; Fusobacterium, SPGS10): 50 µg/mL (≈ 68.1 µM) | MIC ([6]; Staphylococcus epidermidis, 3519RARI): 0.39 µg/mL (≈ 0.531 µM) | MIC ([7]; Streptococcus agalactiae, CMX633, BHI agar, read-out: MIC): 0.015 µg/mL (≈ 0.0204 µM) | MIC ([8]; Klebsiella aerogenes, ATCC10348): 100 µg/mL (≈ 136 µM) | MIC ([9]; Staphylococcus epidermidis, CMX724G): 128 µg/mL (≈ 174 µM) | MIC [10]: 3.1 µg/mL (≈ 4.22 µM) | MIC ([11]; Streptococcus pneumoniae, CMX635, BHI agar, read-out: MIC): 0.008 µg/mL (≈ 0.0109 µM) | MIC ([12]; Veillonella parvula, ATCC10790): 12.5 µg/mL (≈ 17 µM) | MIC (E. coli H560; Escherichia coli, H560): 12.5 µg/mL (≈ 17 µM) | MIC (Staph. epidermidis 3519; Staphylococcus epidermidis, 3519): 0.39 µg/mL (≈ 0.531 µM) | MIC (Staph. aureus ATCC 25923; Staphylococcus aureus, ATCC25923, BHI agar, read-out: MIC): 0.06 µg/mL (≈ 0.0818 µM) | MIC (Acinetobacter SP CMX 669; Acinetobacter, SPCMX669): 12.5 µg/mL (≈ 17 µM) | MIC (Cl. perfringens 788; Clostridium perfringens, 788): 1.6 µg/mL (≈ 2.18 µM) | MIC (Staph. aureus CMX 739A; Staphylococcus aureus, CMX739A, read-out: MIC): 0.06 µg/mL (≈ 0.0818 µM) | MIC (Bact. fragilis 105; Bacteroides fragilis, read-out: MIC): 0.4 µg/mL (≈ 0.545 µM) | MIC (Pep. magnus ATCC 29328; Finegoldia magna, ATCC29328, BHI agar, read-out: MIC): 0.4 µg/mL (≈ 0.545 µM) | MIC ([13]; Pseudomonas aeruginosa, K799/61): 3.1 µg/mL (≈ 4.22 µM)
